Data from US12508176B2, “Sanitary article comprising a water-soluble dry coating comprising skin beneficial additives” (priority 2022, dated 2025).

Experiment: transfer study of dry water-soluble coating from sanitary article to skin (tape stripping, LC-MS/MS)
Type: in vivo, test persons
Excerpt: FIG. 3 is a bar chart illustrating the results from a transfer study made with two sanitary articles according to the present invention. Eight test persons wore sanitary articles on three different spots on the volar forearms for three days (3 products per day). One spot was covered with products coated with formula A, one with products coated with formula B and one with reference product without any formula. After three days the skin in the test spots plus one additional spot where no product had been worn was harvested by means of tape stripping. The sample tape strips were extracted, analyzed by LC-MS/MS quantifying the betaine and allantoin content.

Row | transfer to the skin (betaine and allantoin content of tape strips) (sanitary articles coated with formula A or B worn on volar forearms for three days, 3 products per day, tape stripping, LC-MS/MS, FIG. 3) | transfer to the skin (betaine and allantoin content of tape strips) (in vivo) | Compound
1 | readily detected on the skin |  | NC(=O)NC1NC(=O)NC1=O (centres unmarked) [allantoin]
2 |  | readily detected on the skin | C[N+](C)(C)CC(=O)[O-] [betaine, trimethylglycine]
